Assay results: paper PMC3098952 (Bioorganic & medicinal chemistry letters, 2011)
pKd: −log10 of the molar value.

Assays:
EcMetAP = settings: read-out: Reported affinity of metal for EcMetAP; ref [30], [31]; cited from earlier work
AbMetAPy = AbMetAPy (Acinetobacter baumannii, UniProt V5VCW7); experiment: Activation of and metal binding to AbMetAPy by divalent metal ions; assay type: biochemical, Acinetobacter baumannii ATCC 17978; settings: Met-AMC fluorescence assay, enzyme 1 µM
AbMetAPx = AbMetAPx (Acinetobacter baumannii, UniProt A0A7U4DGZ4); experiment: Activation of and metal binding to AbMetAPx by divalent metal ions; assay type: biochemical, Acinetobacter baumannii ATCC 17978; settings: Met-AMC fluorescence assay, enzyme 1 µM

| SMILES | pKd (EcMetAP) | Activation of AbMetAPy by metal ion (AbMetAPy) | Activation of AbMetAPx by metal ion (AbMetAPx) |
| --- | --- | --- | --- |
| [Co+2] [Co(II)] | 6.52 | – | – |
| [Fe+2] [Fe(II)] | 6.70 | – | – |
| [Mn+2] [Mn(II)] | 5.22 | – | – |
| [Zn+2] [Zn (II)] | – | no activation | no activation |
